Assay results taken from PubChem BioAssay AID2060326 (Molecular Pharmacology Branch, DTP, NCI, 2025).
Values joined by “and” are separate entries in the source; they are usually repeats but may differ in a detail not shown here. Equal values may be shown once. One block for each compound: values may come before it.

Tested on: MDA-MB-468 multi-cell spheroids, viability
Test: Anticancer human tumor MDA-MB-468 cell line growth inhibition [IpAb];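 also: spheroids exposed to agents for seven days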;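 as to viability, T/C: 100% = DMSO vehicle control viability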
Conditions: for viability, T/C: stronger effect = lower value
How it was run: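 Multi-cell spheroids of 60% tumour cells, 25% HUVEC and 15% MSC in ultra-low-attachment U-bottom wells, treated with agents combined with ipatasertib or abemaciclib. Half-log ranges top out near clinical Cmax, or 10 microM when Cmax is unknown.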

[1] = curve of first compound, second compound 0.1 µM
[2] = curve of first compound, second compound 0.316 µM
[3] = curve of first compound, second compound 1 µM
[4] = second compound 0.1 µM, first compound 0.0316 µM
[5] = second compound 0.1 µM, first compound 0.1 µM
[6] = second compound 0.1 µM, first compound 0.316 µM
[7] = second compound 0.1 µM, first compound 1 µM
[8] = second compound 0.1 µM, first compound 3.16 µM
[9] = second compound 0.1 µM, first compound 10 µM
[10] = second compound 0.316 µM, first compound 0.0316 µM
[11] = second compound 0.316 µM, first compound 0.1 µM
[12] = second compound 0.316 µM, first compound 0.316 µM
[13] = second compound 0.316 µM, first compound 1 µM
[14] = second compound 0.316 µM, first compound 3.16 µM
[15] = second compound 0.316 µM, first compound 10 µM
[16] = second compound 1 µM, first compound 0.0316 µM
[17] = second compound 1 µM, first compound 0.1 µM
[18] = second compound 1 µM, first compound 0.316 µM
[19] = second compound 1 µM, first compound 1 µM
[20] = second compound 1 µM, first compound 3.16 µM
[21] = second compound 1 µM, first compound 10 µM
[22] = curve of first compound, second compound 3.16 µM
[23] = curve of first compound, second compound 10 µM
[24] = second compound 3.16 µM, first compound 0.0316 µM
[25] = second compound 3.16 µM, first compound 0.1 µM
[26] = second compound 3.16 µM, first compound 0.316 µM
[27] = second compound 3.16 µM, first compound 1 µM
[28] = second compound 10 µM, first compound 0.0316 µM
[29] = second compound 10 µM, first compound 0.1 µM
[30] = second compound 10 µM, first compound 0.316 µM
[31] = second compound 10 µM, first compound 1 µM

Structure (SMILES): CCCS(=O)(=O)Nc1ccc(F)c(C(=O)c2c[nH]c3ncc(-c4ccc(Cl)cc4)cc23)c1F + CCN1CCN(Cc2ccc(Nc3ncc(F)c(-c4cc(F)c5nc(C)n(C(C)C)c5c4)n3)nc2)CC1
IC50 (curve of first compound, second compound 0.01 µM): > 10000 nM
IC50 (curve of first compound, second compound 0.0316 µM): > 10000 nM
IC50 [1]: > 10000 nM
IC50 [2]: > 10000 nM
IC50 [3]: 5030 nM
viability, T/C (second compound 0.01 µM, first compound 0.0316 µM): 89.8%
viability, T/C (second compound 0.01 µM, first compound 0.1 µM): 88.3%
viability, T/C (second compound 0.01 µM, first compound 0.316 µM): 101%
viability, T/C (second compound 0.01 µM, first compound 1 µM): 124%
viability, T/C (second compound 0.01 µM, first compound 3.16 µM): 108%
viability, T/C (second compound 0.01 µM, first compound 10 µM): 88.7%
viability, T/C (second compound 0.0316 µM, first compound 0.0316 µM): 104%
viability, T/C (second compound 0.0316 µM, first compound 0.1 µM): 91.1%
viability, T/C (second compound 0.0316 µM, first compound 0.316 µM): 99.1%
viability, T/C (second compound 0.0316 µM, first compound 1 µM): 113%
viability, T/C (second compound 0.0316 µM, first compound 3.16 µM): 79.5%
viability, T/C (second compound 0.0316 µM, first compound 10 µM): 57.5%
viability, T/C [4]: 106%
viability, T/C [5]: 114%
viability, T/C [6]: 104%
viability, T/C [7]: 117%
viability, T/C [8]: 99.5%
viability, T/C [9]: 51.4%
viability, T/C [10]: 102%
viability, T/C [11]: 103%
viability, T/C [12]: 104%
viability, T/C [13]: 98.4%
viability, T/C [14]: 111%
viability, T/C [15]: 64.1%
viability, T/C [16]: 76.9%
viability, T/C [17]: 78.4%
viability, T/C [18]: 85.7%
viability, T/C [19]: 74.2%
viability, T/C [20]: 66.5%
viability, T/C [21]: 26.2%

Structure (SMILES): COc1c(OCCCN2CCOCC2)ccc2c3n(c(=NC(=O)c4cnc(N)nc4)nc12)CCN3 + CC(C)NCC(C(=O)N1CCN(c2ncnc3c2C(C)CC3O)CC1)c1ccc(Cl)cc1
IC50 [1]: 83.7 nM
IC50 [2]: 33.8 nM
IC50 [3]: < 3.16 nM
IC50 [22]: < 3.16 nM
IC50 [23]: < 3.16 nM
viability, T/C (second compound 0.1 µM, first compound 0.00316 µM): 98.4%
viability, T/C (second compound 0.1 µM, first compound 0.01 µM): 78.2%
viability, T/C [4]: 70.2%
viability, T/C [5]: 49.7%
viability, T/C [6]: 20.3%
viability, T/C [7]: 3.61%
viability, T/C (second compound 0.316 µM, first compound 0.00316 µM): 68.5%
viability, T/C (second compound 0.316 µM, first compound 0.01 µM): 56.1%
viability, T/C [10]: 54%
viability, T/C [11]: 36.3%
viability, T/C [12]: 18.1%
viability, T/C [13]: 2.31%
viability, T/C (second compound 1 µM, first compound 0.00316 µM): 51.3%
viability, T/C (second compound 1 µM, first compound 0.01 µM): 40.3%
viability, T/C [16]: 38.9%
viability, T/C [17]: 26.8%
viability, T/C [18]: 11.9%
viability, T/C [19]: 1.77%
viability, T/C (second compound 3.16 µM, first compound 0.00316 µM): 30.4%
viability, T/C (second compound 3.16 µM, first compound 0.01 µM): 26.5%
viability, T/C [24]: 23%
viability, T/C [25]: 19.1%
viability, T/C [26]: 9.55%
viability, T/C [27]: 1.46%
viability, T/C (second compound 10 µM, first compound 0.00316 µM): 16.1%
viability, T/C (second compound 10 µM, first compound 0.01 µM): 12.8%
viability, T/C [28]: 11%
viability, T/C [29]: 8.37%
viability, T/C [30]: 4.92%
viability, T/C [31]: 0.95%

Structure (SMILES): CC(=O)c1c(C)c2cnc(Nc3ccc(N4CCNCC4)cn3)nc2n(C2CCCC2)c1=O + CC(C)NCC(C(=O)N1CCN(c2ncnc3c2C(C)CC3O)CC1)c1ccc(Cl)cc1
IC50 [1]: > 300 nM
IC50 [2]: > 300 nM
IC50 [3]: 4.44 nM
IC50 [22]: < 0.949 nM
IC50 [23]: < 0.949 nM
viability, T/C (second compound 0.1 µM, first compound 0.000949 µM): 87.4%
viability, T/C (second compound 0.1 µM, first compound 0.003 µM): 80.3%
viability, T/C (second compound 0.1 µM, first compound 0.00949 µM): 73.1%
viability, T/C (second compound 0.1 µM, first compound 0.03 µM): 81%
viability, T/C (second compound 0.1 µM, first compound 0.0949 µM): 71.4%
viability, T/C (second compound 0.1 µM, first compound 0.3 µM): 77.8%
viability, T/C (second compound 0.316 µM, first compound 0.000949 µM): 66.1%
viability, T/C (second compound 0.316 µM, first compound 0.003 µM): 61%
viability, T/C (second compound 0.316 µM, first compound 0.00949 µM): 57.4%
viability, T/C (second compound 0.316 µM, first compound 0.03 µM): 54.8%
viability, T/C (second compound 0.316 µM, first compound 0.0949 µM): 59.5%
viability, T/C (second compound 0.316 µM, first compound 0.3 µM): 59.5%
viability, T/C (second compound 1 µM, first compound 0.000949 µM): 57.9%
viability, T/C (second compound 1 µM, first compound 0.003 µM): 51.8%
viability, T/C (second compound 1 µM, first compound 0.00949 µM): 46.4%
viability, T/C (second compound 1 µM, first compound 0.03 µM): 48.1%
viability, T/C (second compound 1 µM, first compound 0.0949 µM): 49.6%
viability, T/C (second compound 1 µM, first compound 0.3 µM): 48.3%
viability, T/C (second compound 3.16 µM, first compound 0.000949 µM): 35.9%
viability, T/C (second compound 3.16 µM, first compound 0.003 µM): 36.4%
viability, T/C (second compound 3.16 µM, first compound 0.00949 µM): 31.9%
viability, T/C (second compound 3.16 µM, first compound 0.03 µM): 32.7%
viability, T/C (second compound 3.16 µM, first compound 0.0949 µM): 29.5%
viability, T/C (second compound 3.16 µM, first compound 0.3 µM): 29.8%
viability, T/C (second compound 10 µM, first compound 0.000949 µM): 18.6%
viability, T/C (second compound 10 µM, first compound 0.003 µM): 19.3%
viability, T/C (second compound 10 µM, first compound 0.00949 µM): 19.9%
viability, T/C (second compound 10 µM, first compound 0.03 µM): 17.5%
viability, T/C (second compound 10 µM, first compound 0.0949 µM): 17.3%
viability, T/C (second compound 10 µM, first compound 0.3 µM): 17.6%

IC50 (curve of compound): 4400 nM and 4230 nM
Structure (SMILES): Cn1nccc1Nc1nccc(-c2ccn(C(CO)c3ccc(Cl)c(F)c3)c(=O)c2)n1 (centres undefined)
viability, T/C (compound 0.0316 µM): 84.7% and 94.8%
viability, T/C (compound 0.1 µM): 91.9% and 98.6%
viability, T/C (compound 0.316 µM): 100% and 83.9%
viability, T/C (compound 1 µM): 84.2% and 81.8%
viability, T/C (compound 3.16 µM): 68.4% and 64.4%
viability, T/C (compound 10 µM): 5.12% and 13.2%

IC50 (compound alone, run of 05/18/2021): 1.25 µM [middle of 12 runs]
Structure (SMILES): CC(C)NCC(C(=O)N1CCN(c2ncnc3c2C(C)CC3O)CC1)c1ccc(Cl)cc1 (centres undefined)
viability, T/C (compound 0.1 µM): 91.9% [middle of 13 runs]
viability, T/C (compound 1 µM): 54.4% [middle of 13 runs]
viability, T/C (compound 3.16 µM): 35.1% [middle of 13 runs]
viability, T/C (compound 10 µM): 18.4% [middle of 13 runs]

Structure (SMILES): Cc1nc(NC(=O)N2CCCC2C(N)=O)sc1-c1ccnc(C(C)(C)C(F)(F)F)c1 (centres undefined) + CC(C)NCC(C(=O)N1CCN(c2ncnc3c2C(C)CC3O)CC1)c1ccc(Cl)cc1
IC50 [1]: 5510 nM
IC50 [2]: 3820 nM
IC50 [3]: < 31.6 nM
IC50 [22]: < 31.6 nM
IC50 [23]: < 31.6 nM
viability, T/C [4]: 82.6%
viability, T/C [5]: 75.6%
viability, T/C [6]: 79.1%
viability, T/C [7]: 75.6%
viability, T/C [8]: 72.3%
viability, T/C [9]: 26.3%
viability, T/C [10]: 61.5%
viability, T/C [11]: 61.1%
viability, T/C [12]: 58.9%
viability, T/C [13]: 53.7%
viability, T/C [14]: 57.1%
viability, T/C [15]: 16.3%
viability, T/C [16]: 47.8%
viability, T/C [17]: 45.7%
viability, T/C [18]: 48%
viability, T/C [19]: 36.8%
viability, T/C [20]: 31.4%
viability, T/C [21]: 8.2%
viability, T/C [24]: 32.6%
viability, T/C [25]: 30.6%
viability, T/C [26]: 25.5%
viability, T/C [27]: 20.8%
viability, T/C (second compound 3.16 µM, first compound 3.16 µM): 20.6%
viability, T/C (second compound 3.16 µM, first compound 10 µM): 4.36%
viability, T/C [28]: 16.3%
viability, T/C [29]: 14.8%
viability, T/C [30]: 13.2%
viability, T/C [31]: 10.3%
viability, T/C (second compound 10 µM, first compound 3.16 µM): 7.57%
viability, T/C (second compound 10 µM, first compound 10 µM): 1.53%

IC50 (curve of compound): 495 nM and 505 nM
Structure (SMILES): C=CCn1c(=O)c2cnc(Nc3ccc(N4CCN(C)CC4)cc3)nc2n1-c1cccc(C(C)(C)O)n1
viability, T/C (compound 0.0316 µM): 80.6% and 99.8%
viability, T/C (compound 0.1 µM): 94.4% and 96.1%
viability, T/C (compound 0.316 µM): 77.9% and 78.9%
viability, T/C (compound 1 µM): 6.3% and 7.75%
viability, T/C (compound 3.16 µM): 3.1% and 3.7%
viability, T/C (compound 10 µM): 2.62% and 3.3%
